This passage reports remaining binding results from publication PMC10004634 (PLOS ONE, 2023).

Some targets named below: RIPK2 (Homo sapiens, UniProt O43353); MAP4K4 (Homo sapiens, UniProt O95819); STK16 (Homo sapiens, UniProt O75716).
Common to all, as to assay: biochemical
Holding throughout (design): KINOMEscan scanMAX competition binding, DNA-tagged kinases, qPCR read-out, percent control at 300 nM
A general note: In qPCR the cycle at which signal appears reflects the starting amount.

A further assay has as its target T1, DDR2 (Homo sapiens, UniProt Q16832).
T1 sequence (Q16832 1-855): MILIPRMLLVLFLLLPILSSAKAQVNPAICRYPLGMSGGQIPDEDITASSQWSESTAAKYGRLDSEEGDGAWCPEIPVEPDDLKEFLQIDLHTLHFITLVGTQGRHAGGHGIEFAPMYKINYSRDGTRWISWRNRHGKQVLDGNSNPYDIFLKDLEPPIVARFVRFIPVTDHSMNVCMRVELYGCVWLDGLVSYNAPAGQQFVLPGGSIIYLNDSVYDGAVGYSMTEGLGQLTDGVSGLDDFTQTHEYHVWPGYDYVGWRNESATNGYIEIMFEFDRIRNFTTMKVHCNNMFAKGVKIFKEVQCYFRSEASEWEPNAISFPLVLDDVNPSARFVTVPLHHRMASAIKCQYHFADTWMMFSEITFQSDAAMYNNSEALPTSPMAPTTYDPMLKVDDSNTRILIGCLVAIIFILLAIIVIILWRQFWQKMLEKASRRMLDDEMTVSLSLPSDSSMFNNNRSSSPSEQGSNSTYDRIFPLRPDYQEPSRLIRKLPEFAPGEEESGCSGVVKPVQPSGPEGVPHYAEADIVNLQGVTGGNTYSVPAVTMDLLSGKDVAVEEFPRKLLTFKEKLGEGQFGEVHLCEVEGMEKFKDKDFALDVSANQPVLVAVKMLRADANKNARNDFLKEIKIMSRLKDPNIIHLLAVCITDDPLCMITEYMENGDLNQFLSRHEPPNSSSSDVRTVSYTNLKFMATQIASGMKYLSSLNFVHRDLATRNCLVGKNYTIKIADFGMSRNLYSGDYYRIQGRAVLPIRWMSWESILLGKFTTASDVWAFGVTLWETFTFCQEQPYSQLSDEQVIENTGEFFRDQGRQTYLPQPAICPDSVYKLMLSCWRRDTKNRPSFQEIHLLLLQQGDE

The target of another assay is T2, CDK11 (Homo sapiens, UniProt Q9BWU1).
T2 construct: gene CDK19
T2 sequence (Q9BWU1 whole entry): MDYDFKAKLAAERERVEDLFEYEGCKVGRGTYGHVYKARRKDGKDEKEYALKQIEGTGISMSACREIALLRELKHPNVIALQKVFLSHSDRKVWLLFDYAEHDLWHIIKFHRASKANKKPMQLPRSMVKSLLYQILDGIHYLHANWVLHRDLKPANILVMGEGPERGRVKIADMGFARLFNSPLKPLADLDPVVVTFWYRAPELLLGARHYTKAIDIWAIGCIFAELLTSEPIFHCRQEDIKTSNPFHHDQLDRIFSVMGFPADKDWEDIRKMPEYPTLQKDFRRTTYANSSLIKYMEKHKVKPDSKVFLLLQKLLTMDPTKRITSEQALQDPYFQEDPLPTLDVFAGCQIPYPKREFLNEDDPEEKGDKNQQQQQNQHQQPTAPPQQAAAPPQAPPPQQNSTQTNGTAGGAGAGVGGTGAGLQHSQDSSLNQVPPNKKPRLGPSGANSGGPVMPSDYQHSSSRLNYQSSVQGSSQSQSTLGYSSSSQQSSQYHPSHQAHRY

The next assay concerns the target T3, MARK4 (Homo sapiens, UniProt Q96L34).
T3 sequence (Q96L34 1-752): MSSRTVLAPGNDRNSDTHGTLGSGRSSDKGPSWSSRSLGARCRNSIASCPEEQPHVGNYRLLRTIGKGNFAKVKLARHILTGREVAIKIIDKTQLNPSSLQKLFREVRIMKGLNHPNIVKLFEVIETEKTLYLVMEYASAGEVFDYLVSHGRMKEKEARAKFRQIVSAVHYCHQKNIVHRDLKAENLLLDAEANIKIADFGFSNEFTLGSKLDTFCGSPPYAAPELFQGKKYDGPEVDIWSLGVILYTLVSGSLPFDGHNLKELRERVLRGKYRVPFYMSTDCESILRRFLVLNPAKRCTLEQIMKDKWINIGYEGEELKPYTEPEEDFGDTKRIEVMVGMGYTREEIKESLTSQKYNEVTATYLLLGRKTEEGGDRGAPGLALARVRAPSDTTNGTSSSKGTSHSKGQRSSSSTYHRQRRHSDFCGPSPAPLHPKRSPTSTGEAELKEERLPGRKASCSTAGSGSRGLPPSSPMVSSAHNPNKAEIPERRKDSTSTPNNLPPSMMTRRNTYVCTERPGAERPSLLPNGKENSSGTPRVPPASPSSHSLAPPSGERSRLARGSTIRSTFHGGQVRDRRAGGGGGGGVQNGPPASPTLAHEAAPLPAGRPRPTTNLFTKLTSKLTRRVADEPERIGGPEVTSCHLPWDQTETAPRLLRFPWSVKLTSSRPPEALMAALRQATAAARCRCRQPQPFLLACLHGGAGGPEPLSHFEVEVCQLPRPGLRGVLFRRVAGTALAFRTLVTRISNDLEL

The target in a further assay is T4, RIOK3 (Homo sapiens, UniProt O14730).
T4 sequence (O14730 1-519): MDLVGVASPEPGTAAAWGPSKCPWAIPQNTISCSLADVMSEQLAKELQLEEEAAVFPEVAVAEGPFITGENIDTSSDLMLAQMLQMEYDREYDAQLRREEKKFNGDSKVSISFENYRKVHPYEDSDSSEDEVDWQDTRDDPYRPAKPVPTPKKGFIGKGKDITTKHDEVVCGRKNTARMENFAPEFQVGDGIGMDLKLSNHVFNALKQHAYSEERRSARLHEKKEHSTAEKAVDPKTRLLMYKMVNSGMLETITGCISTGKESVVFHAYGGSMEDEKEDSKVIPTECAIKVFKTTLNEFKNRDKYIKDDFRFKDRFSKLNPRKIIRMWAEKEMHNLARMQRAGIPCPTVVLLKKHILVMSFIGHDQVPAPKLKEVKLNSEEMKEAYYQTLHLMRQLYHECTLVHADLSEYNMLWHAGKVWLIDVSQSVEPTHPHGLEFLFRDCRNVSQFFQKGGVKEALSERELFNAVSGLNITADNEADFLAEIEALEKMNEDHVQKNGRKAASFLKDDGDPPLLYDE

Setting [1] is: read-out: Percent control / Tirabrutinib.
Where [2] appears, read: read-out: Percent control / Acalabrutinib.
Setting [3] is: read-out: Percent control / Ibrutinib.
[4] abbreviates: read-out: Percent control / Zanubrutinib.

The structures appear in SMILES notation. Where two headings read alike, the source gives them in different places.

Sequence of MAP4K4 (O95819 whole entry): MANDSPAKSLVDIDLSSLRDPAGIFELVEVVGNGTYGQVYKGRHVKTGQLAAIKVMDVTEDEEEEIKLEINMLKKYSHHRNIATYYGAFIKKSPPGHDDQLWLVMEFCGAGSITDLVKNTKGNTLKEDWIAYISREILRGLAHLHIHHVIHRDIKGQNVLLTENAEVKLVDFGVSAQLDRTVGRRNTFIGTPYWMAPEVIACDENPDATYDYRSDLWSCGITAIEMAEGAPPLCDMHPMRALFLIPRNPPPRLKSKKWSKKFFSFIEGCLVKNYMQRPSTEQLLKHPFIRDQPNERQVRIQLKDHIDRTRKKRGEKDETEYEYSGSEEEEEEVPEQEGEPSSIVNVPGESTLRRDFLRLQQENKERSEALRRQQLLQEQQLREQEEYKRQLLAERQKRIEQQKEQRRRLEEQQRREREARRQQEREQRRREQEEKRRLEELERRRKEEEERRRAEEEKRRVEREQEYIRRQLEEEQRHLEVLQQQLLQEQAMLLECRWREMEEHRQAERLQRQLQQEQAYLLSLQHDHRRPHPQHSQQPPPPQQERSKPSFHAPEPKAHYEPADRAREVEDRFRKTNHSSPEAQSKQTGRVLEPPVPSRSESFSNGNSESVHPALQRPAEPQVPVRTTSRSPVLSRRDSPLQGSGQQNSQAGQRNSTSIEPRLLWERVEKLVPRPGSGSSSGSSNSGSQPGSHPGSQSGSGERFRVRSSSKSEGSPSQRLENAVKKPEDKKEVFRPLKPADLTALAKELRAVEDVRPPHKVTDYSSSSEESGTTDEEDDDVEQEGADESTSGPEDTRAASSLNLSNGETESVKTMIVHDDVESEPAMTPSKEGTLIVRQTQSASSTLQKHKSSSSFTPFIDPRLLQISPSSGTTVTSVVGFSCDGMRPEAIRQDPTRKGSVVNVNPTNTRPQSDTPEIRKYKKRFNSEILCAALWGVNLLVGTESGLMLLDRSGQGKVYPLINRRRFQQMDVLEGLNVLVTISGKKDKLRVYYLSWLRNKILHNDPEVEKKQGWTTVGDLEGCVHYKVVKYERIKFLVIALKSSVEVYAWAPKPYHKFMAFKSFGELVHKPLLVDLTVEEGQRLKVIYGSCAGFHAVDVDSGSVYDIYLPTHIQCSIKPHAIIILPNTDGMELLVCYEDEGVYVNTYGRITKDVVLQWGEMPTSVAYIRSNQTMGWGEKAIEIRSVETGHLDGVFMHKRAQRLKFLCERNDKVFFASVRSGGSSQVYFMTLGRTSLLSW
Sequence of RIPK2 (O43353 whole entry): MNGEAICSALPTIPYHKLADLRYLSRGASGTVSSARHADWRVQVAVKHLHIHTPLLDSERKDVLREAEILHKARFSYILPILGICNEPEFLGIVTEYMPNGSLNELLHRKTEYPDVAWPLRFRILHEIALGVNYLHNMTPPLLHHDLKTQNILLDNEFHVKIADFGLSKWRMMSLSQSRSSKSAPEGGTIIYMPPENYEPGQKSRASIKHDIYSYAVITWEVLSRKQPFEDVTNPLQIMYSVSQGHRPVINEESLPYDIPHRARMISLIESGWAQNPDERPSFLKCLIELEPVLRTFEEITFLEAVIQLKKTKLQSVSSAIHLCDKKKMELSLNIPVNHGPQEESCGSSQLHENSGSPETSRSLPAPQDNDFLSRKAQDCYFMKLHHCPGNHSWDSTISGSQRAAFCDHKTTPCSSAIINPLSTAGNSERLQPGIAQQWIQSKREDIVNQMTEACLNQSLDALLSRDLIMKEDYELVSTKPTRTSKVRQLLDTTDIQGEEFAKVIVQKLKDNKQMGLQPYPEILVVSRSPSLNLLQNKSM
Sequence of STK16 (O75716 whole entry): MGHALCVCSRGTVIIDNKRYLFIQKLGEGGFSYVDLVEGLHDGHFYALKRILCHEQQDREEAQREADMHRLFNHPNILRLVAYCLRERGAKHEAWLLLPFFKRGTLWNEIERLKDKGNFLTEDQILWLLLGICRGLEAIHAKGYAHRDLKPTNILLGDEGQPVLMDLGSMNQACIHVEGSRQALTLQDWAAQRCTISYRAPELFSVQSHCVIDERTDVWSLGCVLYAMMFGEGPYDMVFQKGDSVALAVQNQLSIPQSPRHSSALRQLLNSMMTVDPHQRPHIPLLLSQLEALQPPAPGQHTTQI

For `CC#CC(=O)N1CC[C@@H](n2c(=O)n(-c3ccc(Oc4ccccc4)cc3)c3c(N)ncnc32)C1` [Tirabrutinib], the remaining binding at 0.3 µM at RIPK2 (setting [1]) amounted to 33%; at DDR2 (setting [1]), 88%; on MAP4K4 (setting [1]), 98%; at STK16 (setting [1]), 82%; on CDK11 (setting [1]) it was 93%; at MARK4 (setting [1]), 94%.

For the compound `CC#CC(=O)N1CCC[C@H]1c1nc(-c2ccc(C(=O)Nc3ccccn3)cc2)c2c(N)nccn12` [Acalabrutinib], the remaining binding at 0.3 µM is 79% at RIPK2 (setting [2]); 90% on RIOK3 (setting [2]); 95% on DDR2 (setting [2]); 92% on MAP4K4 (setting [2]); 86% at STK16 (setting [2]); 74% at CDK11 (setting [2]).

Take `C=CC(=O)N1CCC[C@@H](n2nc(-c3ccc(Oc4ccccc4)cc3)c3c(N)ncnc32)C1` [Ibrutinib]: the remaining binding at 0.3 µM at RIPK2 (setting [3]) amounted to 6.4%; at RIOK3 (setting [3]), 89%; on DDR2 (setting [3]) it was 80%; at MAP4K4 (setting [3]), 98%; on STK16 (setting [3]), 98%; on CDK11 (setting [3]), 81%. Further, on MARK4 (setting [3]), the remaining binding at 0.3 µM is 96%.

For `C=CC(=O)N1CCC([C@@H]2CCNc3c(C(N)=O)c(-c4ccc(Oc5ccccc5)cc4)nn32)CC1` [Zanubrutinib], the remaining binding at 0.3 µM at RIOK3 (setting [4]) was 100%; at MAP4K4 (setting [4]) it was 100%; at STK16 (setting [4]), 100%; at CDK11 (setting [4]) it was 83%; on MARK4 (setting [4]), 83%.
